In US10631539B2, “Fungicidal compositions” (SYNGENTA PARTICIPATIONS AG, priority 2015, dated 2020):

The compounds below were run on Puccinia recondita f. sp. tritici (assay: Puccinia recondita f. sp. tritici / wheat / leaf disc curative (brown rust)). Details: foliar, 24 h, wheat leaf disks cv. Kanzler, applied 1 day after inoculation (curative), compared to untreated control, read-out: disease control.
Assay type: in vivo
Experimental: Puccinia recondita f. Sp. Tritici/Wheat/Leaf Disc Curative (Brown Rust)
Wheat leaf segments cv. Kanzler are placed on agar in multiwell plates (24-well format). The leaf segments are inoculated with a spore suspension of the fungus. Plates were stored in darkness at 19° C. and 75% rh. The formulated test compound or mixture composition diluted in water was applied 1 day after inoculation. The leaf segments were incubated at 19° C. and 75% rh under a light regime of 12 h light/12 h darkness in a climate cabinet and the activity of a compound or mixture composition was assessed as percent disease control compared to untreated when an appropriate level of disease damage appears in untreated check leaf segments (6-8 days after application).

| Structure (SMILES) | pest or weed control at 200 ppm |
| --- | --- |
| CCCOC[C@H](C)Oc1nc(C)c(/N=C/N(C)CC)cc1Br [Compound 67.002, N′-[5-bromo-2-methyl-6-[(1S)-1-methyl-2-propoxy-ethoxy]-3-pyridyl]-N-ethyl-N-methyl-formamidine] | ≥ 80% |
| CCCOC[C@@H](C)Oc1nc(C)c(/N=C/N(C)CC)cc1Br [Compound 67.003, N′-[5-bromo-2-methyl-6-[(1R)-1-methyl-2-propoxy-ethoxy]-3-pyridyl]-N-ethyl-N-methyl-formamidine] | ≥ 80% |
| CCCOCC(C)Oc1nc(C)c(/N=C/N(C)CC)cc1C#N (stereo not shown) [Compound 67.007, N′-[5-cyano-2-methyl-6-(1-methyl-2-propoxy-ethoxy)-3-pyridyl]-N-ethyl-N-methyl-formamidine] | ≥ 80% |
| CCCOCC(C)Oc1nc(C)c(/N=C/N(C)CC)cc1C(F)F (stereo not shown) [Compound 67.009, N′-[5-(difluoromethyl)-2-methyl-6-(1-methyl-2-propoxy-ethoxy)-3-pyridyl]-N-ethyl-N-methyl-formamidine] | ≥ 80% |
| CCCOCC(C)Oc1nc(C)c(/N=C/N(C)CC)cc1OC(F)F (stereo not shown) [Compound 67.010] | ≥ 80% |
| CCCOCC(C)Oc1nc(C)c(/N=C/N(C)CC)cc1C (stereo not shown) [Compound 67.011, N′-[2,5-dimethyl-6-(1-methyl-2-propoxy-ethoxy)-3-pyridyl]-N-ethyl-N-methyl-formamidine] | ≥ 80% |
| CCCOCC(C)Oc1ccc(/N=C/N(C)CC)c(C)n1 (stereo not shown) [Compound 67.012] | ≥ 80% |
| CCCOCC(C)Oc1nc(C)c(/N=C/N(C)CC)cc1Br (stereo not shown) [Compound 67.013, N′-[5-bromo-2-methyl-6-(1-methyl-2-propoxy-ethoxy)-3-pyridyl]-N-ethyl-N-methyl-formamidine] | ≥ 80% |
| C=CCOCC(C)Oc1nc(C)c(/N=C/N(C)CC)cc1Cl (stereo not shown) [Compound 67.014, N′-[6-(2-allyloxy-1-methyl-ethoxy)-5-chloro-2-methyl-3-pyridyl]-N-ethyl-N-methyl-formamidine] | ≥ 80% |
| CCCOCC(C)Oc1nc(C)c(/N=C/N(C)CC)cc1Cl (stereo not shown) [Compound 67.015, N′-[5-chloro-2-methyl-6-(1-methyl-2-propoxy-ethoxy)-3-pyridyl]-N-ethyl-N-methyl-formamidine] | ≥ 80% |
| C=CCOCC(COC)Oc1nc(C)c(/N=C/N(C)CC)cc1Br (stereo not shown) [Compound 67.016] | ≥ 80% |
| C=CCOCC(C)Oc1nc(C)c(/N=C/N(C)CC)cc1C#N (stereo not shown) [Compound 67.017] | ≥ 80% |
| CCCOCC(C)Oc1nc(C)c(/N=C/N(C)C(C)C)cc1Br (stereo not shown) [Compound 67.018, N′-[5-bromo-2-methyl-6-(1-methyl-2-propoxy-ethoxy)-3-pyridyl]-N-isopropyl-N-methyl-formamidine] | ≥ 80% |
| CCN(C)/C=N/c1cc(C#N)c(OC(C)COc2cccc(C(F)(F)F)c2)nc1C (stereo not shown) [Compound 67.020] | ≥ 80% |
| CCN(C)/C=N/c1cc(C#N)c(OC(C)COc2ccc(Cl)cc2)nc1C (stereo not shown) [Compound 67.021] | ≥ 80% |
| CCN(C)/C=N/c1cc(C#N)c(OC(C)COc2ccccc2)nc1C (stereo not shown) [Compound 67.022] | ≥ 80% |
| CCN(C)/C=N/c1cc(Cl)c(OC(C)COc2cccc(C(F)(F)F)c2)nc1C (stereo not shown) [Compound 67.023] | ≥ 80% |
| CCN(C)/C=N/c1cc(Cl)c(OC(C)COc2ccc(Cl)cc2)nc1C (stereo not shown) [Compound 67.024] | ≥ 80% |
| CCN(C)/C=N/c1cc(Cl)c(OC(C)COc2ccccc2)nc1C (stereo not shown) [Compound 67.025] | ≥ 80% |
| CCN(C)/C=N/c1cc(Br)c(OC(C)COc2ccc(Cl)cc2)nc1C (stereo not shown) [Compound 67.026] | ≥ 80% |
| CCN(C)/C=N/c1cc(Br)c(OC(C)COc2cccc(C(F)(F)F)c2)nc1C (stereo not shown) [Compound 67.027] | ≥ 80% |
| CCN(C)/C=N/c1cc(Br)c(OC(C)COc2ccccc2)nc1C (stereo not shown) [Compound 67.028] | ≥ 80% |

What follows are compounds tested on Blumeria graminis f. Sp. Tritici (Erysiphe qraminis f. Sp. Tritici) (assay: Blumeria graminis f. sp. tritici / wheat / leaf disc preventative (powdery mildew on wheat)). Details: foliar, wheat leaf disks cv. Kanzler, inoculated 1 day after application, compared to untreated control, read-out: disease control.
Assay type: in vivo
Experimental: Blumeria graminis f. Sp. Tritici (Erysiphe qraminis f. Sp. Tritici)/Wheat/Leaf Disc Preventative (Powdery Mildew on Wheat)
Wheat leaf segments cv. Kanzler were placed on agar in a multiwell plate (24-well format) and sprayed with the formulated test compound or mixture composition diluted in water. The leaf disks were inoculated by shaking powdery mildew infected plants above the test plates 1 day after application. The inoculated leaf disks were incubated at 20° C. and 60% rh under a light regime of 24 h darkness followed by 12 h light/12 h darkness in a climate chamber and the activity of a compound or mixture composition was assessed as percent disease control compared to untreated when an appropriate level of disease damage appears on untreated check leaf segments (6-8 days after application).

| Structure (SMILES) | pest or weed control at 200 ppm |
| --- | --- |
| CCCOC[C@H](C)Oc1nc(C)c(/N=C/N(C)CC)cc1Br [Compound 67.002, N′-[5-bromo-2-methyl-6-[(1S)-1-methyl-2-propoxy-ethoxy]-3-pyridyl]-N-ethyl-N-methyl-formamidine] | ≥ 80% |

The compounds below were run on Phakopsora pachyrhizi (triazole tolerant soybean rust strain) (assay: Phakopsora pachyrhizi on soybean, preventive treatment). Details: foliar, 264 h, 1 day preventive, leaf discs evaluated 11 days after application, compared to untreated control, read-out: disease control.
Assay type: in vivo
Experimental: Phakopsora pachyrhizi on Soybean, Preventive Treatment
The compound or mixture composition activity was tested under 1 day preventive conditions. Soybean plants with a fully enfolded first trifoliate leaf were sprayed with a track sprayer and 50 l/ha spray volume with the test compounds or mixture composition, either solo or in tankmix as shown in the table below.
1 day after application leaf discs were cut from the first trifoliate leaf and placed in multiwell plates on water-agar. 5 leaf discs per treatment where infested with spores of a triazole tolerant soybean rust strain. The multiwell plates where sealed and placed in an incubator 48 h in darkness and 12 h light/dark cycle afterwards. Rust infestation on leaf discs was evaluated visually 11 days after application and average activity calculated in relation to disease severity on untreated check leaf discs.

| Structure (SMILES) | pest or weed control at 200 ppm |
| --- | --- |
| CCCOC[C@H](C)Oc1nc(C)c(/N=C/N(C)CC)cc1Br [Compound 67.002, N′-[5-bromo-2-methyl-6-[(1S)-1-methyl-2-propoxy-ethoxy]-3-pyridyl]-N-ethyl-N-methyl-formamidine] | ≥ 80% |

What follows are compounds tested on Puccinia recondita f. sp. tritici (assay: Puccinia recondita f. sp. tritici / wheat / leaf disc preventative (brown rust)). Details: foliar, wheat leaf disks cv. Kanzler, inoculated 1 day after application, compared to untreated control, read-out: disease control.
Assay type: in vivo
Experimental: Puccinia recondita f. sp. tritici/wheat/leaf disc preventative (brown rust)
Wheat leaf segments cv. Kanzler were placed on agar in multiwell plates (24-well format) and sprayed with the formulated test compound or mixture composition diluted in water. The leaf disks were inoculated with a spore suspension of the fungus 1 day after application. The inoculated leaf segments were incubated at 19° C. and 75% rh under a light regime of 12 h light/12 h darkness in a climate cabinet and the activity of a compound or mixture composition was assessed as percent disease control compared to untreated when an appropriate level of disease damage appears in untreated check leaf segments (7-9 days after application).

| Structure (SMILES) | pest or weed control at 200 ppm |
| --- | --- |
| CCCOC[C@H](C)Oc1nc(C)c(/N=C/N(C)CC)cc1Br [Compound 67.002, N′-[5-bromo-2-methyl-6-[(1S)-1-methyl-2-propoxy-ethoxy]-3-pyridyl]-N-ethyl-N-methyl-formamidine] | ≥ 80% |
